According to PMC9594040, “Structure-Based Discovery of Negative Allosteric Modulators of the Metabotropic Glutamate Receptor 5” (ACS Chemical Biology, 2022):

These compounds were tested against human mGlu5 (Homo sapiens, UniProt P41594) (assay: Radioligand displacement assay (radiolabeled MPEP) on membranes of HEK293 cells stably expressing mGlu5). Settings: Ki, radioligand displacement; mean ± SEM of two experiments.
human mGlu5, sequence (P41594 21-1212): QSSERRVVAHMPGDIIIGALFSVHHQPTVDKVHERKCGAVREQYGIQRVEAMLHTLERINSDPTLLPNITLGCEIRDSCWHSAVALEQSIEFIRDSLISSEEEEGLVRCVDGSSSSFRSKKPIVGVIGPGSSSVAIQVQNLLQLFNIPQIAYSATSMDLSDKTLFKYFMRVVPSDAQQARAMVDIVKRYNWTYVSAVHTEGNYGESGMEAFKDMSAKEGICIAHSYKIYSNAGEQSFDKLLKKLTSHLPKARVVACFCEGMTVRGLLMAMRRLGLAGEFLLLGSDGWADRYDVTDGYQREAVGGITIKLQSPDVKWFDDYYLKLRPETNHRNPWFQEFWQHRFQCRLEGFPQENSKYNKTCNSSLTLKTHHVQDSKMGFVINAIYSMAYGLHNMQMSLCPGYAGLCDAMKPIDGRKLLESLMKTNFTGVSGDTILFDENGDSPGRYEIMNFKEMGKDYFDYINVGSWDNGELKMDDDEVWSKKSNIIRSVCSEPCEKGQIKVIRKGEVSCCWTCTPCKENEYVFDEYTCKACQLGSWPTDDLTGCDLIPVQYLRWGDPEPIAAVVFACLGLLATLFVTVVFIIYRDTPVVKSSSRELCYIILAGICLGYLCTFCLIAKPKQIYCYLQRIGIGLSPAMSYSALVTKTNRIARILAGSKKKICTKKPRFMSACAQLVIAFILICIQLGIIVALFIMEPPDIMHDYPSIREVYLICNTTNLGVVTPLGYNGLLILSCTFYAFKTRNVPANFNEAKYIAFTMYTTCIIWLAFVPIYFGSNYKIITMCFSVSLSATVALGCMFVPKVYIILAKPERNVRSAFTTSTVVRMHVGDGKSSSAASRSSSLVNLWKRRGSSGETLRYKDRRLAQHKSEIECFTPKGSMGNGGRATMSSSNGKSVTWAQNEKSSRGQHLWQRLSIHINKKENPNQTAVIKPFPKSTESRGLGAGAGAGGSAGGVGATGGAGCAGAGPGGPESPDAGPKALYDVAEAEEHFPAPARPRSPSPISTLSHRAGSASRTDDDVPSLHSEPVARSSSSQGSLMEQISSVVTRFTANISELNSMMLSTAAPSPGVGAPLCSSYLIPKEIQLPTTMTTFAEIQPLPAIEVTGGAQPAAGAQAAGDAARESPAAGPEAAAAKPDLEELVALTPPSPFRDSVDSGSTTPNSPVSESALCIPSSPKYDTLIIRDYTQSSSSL
Description: Treated cells were harvested with PBS/2 mM EDTA and washed three times with ice-cold PBS and frozen at −80 °C. The frozen cell pellet was resuspended in membrane buffer (25 mM Tris/7.4, 250 mM sucrose, 2.5 mM EDTA, 2 ug/ml aprotinin, 0.5 ug/ml leupeptin and 200 nM PMSF) and homogenized with a polytron 20–30 s at maximum power. After centrifugation at 18,000 RPM for 30 min at 4 °C, the pellet was resuspended in ice-cold membrane buffer, hand-homogenized, and centrifuged as described above. This pellet was further resuspended in ice-cold membrane buffer. The protein content was measured using the Bradford method with bovine serum albumin as the standard. The membrane homogenate was frozen at −80 °C before use. After thawing, the membranes were washed once and resuspended in ice-cold 50 mM Tris–HCl, 0.9% NaCl, pH 7.4 buffer. All incubations were performed at room temperature. For the displacement binding experiments, 15 μg of membranes were incubated with 5 nM the radioligand in the presence of 10 varying concentrations of the test compound for 2 h at room temperature with shaking. At the end of the respective incubations, the suspension was filtered onto PerkinElmer GF/C glass fiber filters (1450–421) pre-soaked in 0.5% polyethyleneimine and washed rapidly four times using a Tomtec Harvester 96 Mach III cell harvester (Tomtec, Hamden, CT) with 5 mL of cold wash buffer (50 mM Tris–HCl, pH 7.4). The radioactivity trapped on the filters was measured after heat sealing the filters with MeltiLexTM A (PerkinElmer, 1450–441) in a 1450 MicroBeta TriLux counter (PerkinElmer). […] IC50 values were derived from the inhibition curve, and Ki values were calculated according to the Cheng-Prusoff equation of Ki = IC50/(1 + [L]/Kd),[61] where [L] is the concentration of radioligand and Kd is its dissociation constant at the receptor, derived from the saturation isotherm.

Structure (SMILES) | Ki [µM]
N#Cc1ccc(NCC#Cc2ccccc2)cc1 [F3] | 3.4 ± 0.2
N#Cc1cccc(COc2ccccc2F)c1 [F4] | 8.6 ± 0.1
COc1ccc(Cn2cccc2-c2nc(-c3ccncc3)no2)cc1 [L3] | 3.6 ± 0.1
CN(Cc1cnn(-c2ccccc2)c1)c1noc(-c2ccccc2)n1 [L4] | 4 ± 0.5
CC(c1nc(-c2ccco2)no1)n1nnc(-c2cccc(F)c2)n1 (centres unmarked) [L5] | 4.3 ± 0.9
Cc1nc(-c2ccccc2)sc1C(C)N(C)C(=O)c1cnns1 (centres unmarked) [L6] | 7.3 ± 1.3
CN(Cc1cnn(-c2ccc(F)cc2)c1)c1nc(-c2ccccc2)no1 [L7] | 7.9 ± 0.6

Same assay, conditions: Table S1; radioligand displacement at 30 µM; mean ± SEM of two experiments

Structure (SMILES) | Inhibition at 30 µM [%]
Cc1cccc(NC(=O)Cc2ccc(O)cc2)c1 [F5] | 42 ± 5
CCOc1cccc(CNC(=O)C2CC=CC2)c1 [F7] | 39 ± 7
CC(=O)c1cccc(NCc2ccccc2)c1 [F9] | 38 ± 1
Cc1ccc(C(C)NC(=O)c2ccc(F)cc2)o1 (centres unmarked) [F10] | 35 ± 8
N#Cc1ccc(OC/C=C/c2ccccc2)nc1 [F11] | 35 ± 6
COCc1cccc(Nc2cc(Cl)ncn2)c1 [F12] | 35 ± 10
C=CCNC(=O)c1ccc(Oc2ccccc2)o1 [F13] | 35 ± 10
Cc1cc(CN(C)C(=O)Nc2ccccc2)on1 [F14] | 33 ± 4
CC1CC1C(=O)N(C)CCOc1ccccc1 (centres unmarked) [F15] | 33 ± 9
CC(C)c1nccn1Cc1nc2ccccc2[nH]1 [F16] | 33 ± 5
c1ccc(-n2cc(CCn3cnnc3)cn2)cc1 [F17] | 33 ± 3
Cc1ccccc1CNc1ccc(F)c(C#N)c1 [F18] | 33 ± 9
COCc1cccc(Nc2ccnc(C#N)c2)c1 [F19] | 32 ± 4
Cn1ccnc1SCC=Cc1ccccc1 [F20] | 31 ± 1
CC(c1nc(-c2ccccc2)no1)n1ccnc1 (centres unmarked) [F21] | 31 ± 1
CN(Cc1cn2ccccc2n1)c1ccccc1 [F22] | 31 ± 1
Cc1ccoc1-c1nc(Cc2ccccc2)n[nH]1 [F23] | 30 ± 7
CCn1cnnc1CNC(=O)c1cccc(C)c1 [F24] | 30 ± 1
COc1ccc(CNC(=O)c2csnn2)cc1 [F25] | 28 ± 9
OCc1cccc(NCc2cccc(Cl)c2)c1 [F26] | 28 ± 15
CC(O)c1cccc(OCc2ccccc2)c1 (centres unmarked) [F27] | 27 ± 3
Oc1ccccc1-c1n[nH]c(-c2ccncc2)n1 [F28] | 27 ± 3
CCN(CC(O)c1ccccc1)c1ccccc1 (centres unmarked) [F29] | 27 ± 1
N#Cc1ccnc(Nc2ccc3c(c2)OCO3)c1 [F30] | 27 ± 3

Structure (SMILES) | Inhibition at 30 µM [%]
CN(C)C(=O)c1cc(OCc2ccccc2)no1 [F32] | 27 ± 1
Cc1ccccc1NC(=O)c1ccnc(Cl)c1 [F33] | 26 ± 11
O=C(Nc1ccccc1F)OCc1cccnc1 [F34] | 26 ± 4
OC(c1ccccc1)c1nc2cc(F)ccc2[nH]1 (centres unmarked) [F35] | 25 ± 12
O=C(NCc1ccncc1)c1cccc(Cl)c1 [F36] | 25 ± 3
O=C(CNC(=O)c1ccco1)Nc1ccccc1 [F37] | 25 ± 4
c1ccc(Cn2nnc(-c3ccncc3)n2)cc1 [F38] | 25 ± 3
Cc1cccc(C(=O)NC(C)c2ccncc2)n1 (centres unmarked) [F39] | 24 ± 9
CC[C@H](Nc1cnn(CC)c1)c1ccc(C)cc1 [F40] | 24 ± 7
Clc1ncnc2cc(-c3ccccc3)[nH]c12 [F41] | 24 ± 2
COc1ccc(CNC(=O)c2ccncc2)cc1 [F42] | 24 ± 8
c1ccc(-c2nsc(-n3ccnc3)n2)cc1 [F43] | 23 ± 2
C#Cc1cccc(NC(C)c2ccccc2)c1 (centres unmarked) [F44] | 23 ± 4
CC(C)C(=O)N(C)Cc1nc2ccccc2[nH]1 [F45] | 22 ± 9
CC[C@@H]1CCCC(C(=O)Nc2ccccc2)=C1O [F46] | 22 ± 1
CC(O)c1ccc(OCc2ccc(F)cc2)cc1 (centres unmarked) [F47] | 21 ± 3
CN(CCc1ccccn1)c1ccc(Cl)nn1 [F48] | 21 ± 1
C=CCN1CC(c2nc3ccccc3[nH]2)CC1=O (centres unmarked) [F49] | 20 ± 1
CC(=O)c1nc(Nc2ccccc2)sc1C [F50] | 20 ± 9
Nc1ccccc1Sc1nc2ccccc2[nH]1 [F51] | 20 ± 14
CCC(NC(=O)c1ccccn1)c1ccccc1 (centres unmarked) [F52] | 19 ± 5
Cc1cc(Cn2ccc(-c3ccccc3)n2)on1 [F53] | 19 ± 2
Fc1ccc(F)c(NCCCn2ccnc2)c1 [F55] | 19 ± 5
Clc1cccc(OCCCn2ccnc2)c1 [F56] | 18 ± 4

Structure (SMILES) | Inhibition at 30 µM [%]
COCc1ccc(CNc2ncccc2F)cc1 [F57] | 17 ± 3
Cc1cccn2cc(Cn3ccccc3=O)nc12 [F58] | 16 ± 5
Nc1ccccc1-c1nc2cc(F)c(F)cc2[nH]1 [F59] | 9 ± 1
N#Cc1cc(CNc2ccn(-c3ncccc3Cl)n2)ccc1F [L10] | 41 ± 7
O=C(NCc1ccc(N2CCCC2)nc1)c1cnn(-c2ccccc2)c1 [L11] | 40 ± 4
O=C(NCc1ccc(-n2cccn2)cc1)c1cc2ccccc2s1 [L12] | 39 ± 6
CC1CN(C(=O)Nc2cccc(C#N)c2)CC(c2ccccc2)O1 (centres unmarked) [L14] | 38 ± 12
Cc1noc(CCC(=O)N2CCC(CSc3ccccc3)C2)n1 (centres unmarked) [L15] | 37 ± 6
O=C(Nc1cccc(OCc2ccccn2)c1)c1cccc(F)c1 [L16] | 36 ± 1
CSc1ccc(C(=O)N(C)Cc2nc3ccccc3[nH]2)o1 [L17] | 35 ± 3
O=C(NCc1cc(-c2ccco2)on1)c1cccc(Cl)c1 [L18] | 34 ± 1
O=C(NCc1ccccc1)c1csc(COc2ccc(F)cc2)n1 [L19] | 34 ± 3
CN(Cc1cnn(-c2ccccc2)c1)C(=O)c1cc(-c2ccco2)on1 [L20] | 34 ± 5
O=C(CSc1n[nH]c(-c2cccnc2)n1)Nc1cccc(Cl)c1 [L21] | 33 ± 12
O=C(Nc1cccc(F)c1)C1CCN(c2ccc(F)cc2)C1=O (centres unmarked) [L23] | 32 ± 1
O=C(CCc1cccnc1)N1CCCC(COc2cccc(F)c2)C1 (centres unmarked) [L24] | 32 ± 3
Cc1ccc(C2CC2c2nc(CNC(=O)c3ccccc3)no2)s1 (centres unmarked) [L26] | 31 ± 7
O=C(NCc1cccnc1)c1ccc(COc2ccccc2)o1 [L27] | 31 ± 7
O=C(NCc1ccnc(-n2cccn2)c1)c1ccc(Br)o1 [L29] | 30 ± 9
Cc1ccc(Cn2ccnc2C(=O)Nc2ccccc2)cc1 [L30] | 30 ± 5
Cc1ccc(Cn2cccc2-c2nc(-c3ccncc3)no2)cc1 [L31] | 29 ± 4
O=C(CCc1ccncc1)N1CC(n2cc(-c3ccccc3)nn2)C1 [L32] | 29 ± 3
CCCn1cc(C(=O)Nc2cccc(NC(=O)c3ccncc3)c2)cn1 [L34] | 29 ± 1
c1ccc(Cc2n[nH]c(-c3ccncc3)n2)cc1 [L36] | 29 ± 8

Structure (SMILES) | Inhibition at 30 µM [%]
CCc1noc(COc2cccc(NC(=O)c3ccccc3)c2)n1 [L37] | 29 ± 4
O=C(Nc1ccccn1)c1cc2occc2n1Cc1ccccc1 [L38] | 27 ± 1
O=C(CSc1ccc(-n2cccn2)nn1)Nc1ccccc1Cl [L39] | 27 ± 11
CN(Cc1cc(-c2ccccc2)no1)C(=O)CCOc1ccccc1 [L40] | 27 ± 3
CC(NC(=O)COc1ccc(Cl)cc1)C(=O)Nc1ccccc1 (centres unmarked) [L41] | 26 ± 2
Cc1ccc(F)c(NC(=O)C2CC(=O)N(CCc3ccccc3)C2)c1 (centres unmarked) [L42] | 26 ± 5
c1ccc(OCc2noc(NCc3nc4ccccc4s3)n2)cc1 [L43] | 26 ± 12
Cc1cccc(-c2c[nH]c(C3CCCN3C(=O)c3ccccn3)n2)c1 (centres unmarked) [L44] | 26 ± 13
O=C(COc1ccccc1)Nc1cccc(NC(=O)c2ccncc2)c1 [L45] | 25 ± 7
O=C(NCc1ccnc(OCc2ccccc2)c1)c1cccc(F)c1 [L46] | 24 ± 3
CCCOc1ccc(N2CC(C(=O)Nc3ccccn3)CC2=O)cc1 (centres unmarked) [L47] | 24 ± 3
Cc1csc(CNC(=O)N2CCC(COCc3ccccc3)C2)n1 (centres unmarked) [L48] | 23 ± 4
O=C(c1ccc(Cl)s1)N1CC(c2nc(-c3ccncc3)no2)C1 [L49] | 22 ± 1
O=C(COc1ccccc1)NCc1cc(-c2ccc(F)cc2)on1 [L50] | 20 ± 1
Cc1ccc(C(=O)Nc2cccc(NC(=O)c3ccncc3)c2)s1 [L51] | 20 ± 6
CCN(Cc1nc(-c2ccncc2)no1)c1ccccc1 [L52] | 20 ± 1
CC(NC(=O)c1cccc(F)c1)c1ccc(-n2cncn2)cc1 (centres unmarked) [L53] | 19 ± 2
Cc1ccc(CNC(=O)c2ccn(COc3ccc(F)cc3)n2)o1 [L54] | 18 ± 3
O=C(CSc1ccccc1)N1CC(OCc2cccc(F)c2)C1 [L55] | 18 ± 3
O=C(Nc1ccc(F)c(F)c1)C1(c2cc(-c3ccco3)on2)CC1 [L56] | 18 ± 6
O=C(COc1ccc2ccccc2c1)N1CC(c2nc(C3CC3)no2)C1 [L57] | 17 ± 2
CCOc1ccc(C(=O)N2CC(OCc3ccc(F)cc3)C2)cc1 [L58] | 16 ± 2
Cc1ccc(OCC(=O)N2CC(c3nc(-c4ccco4)no3)C2)cc1 [L59] | 15 ± 1

Same assay, conditions: Table S1; radioligand displacement; mean ± SEM of two experiments

Structure (SMILES) | Ki [µM]
CC(CCOc1ccccc1)c1nc(-c2ccc(C#N)cn2)no1 (centres unmarked) [L8] | 11 ± 1

Same assay, conditions: radioligand displacement; mean ± SEM of two experiments

Structure (SMILES) | Ki [µM]
O=C(Nc1cccc(Cn2ccnc2)c1)c1cccc(F)c1 [L9] | 16
